Data as given in US4174396A, “7,10-Dimethyl-5,9-imino-4,5,8,9-tetrahydro-cyclooct[b]thiophenes and a process for obtaining it” (Laboratories Made, S.A., priority 1978, dated 1979).

Assays:
white Swiss I.C.R. mice = experiment: Chemical analgesia, acetic acid writhing technique; format: in vivo; details: for No. of writhes x ± S.E.M: 25 mg/kg intraperitoneally, 0.25 ml of 1% acetic acid after 30 minutes, writhes noted 20 minutes after acetic acid, control 130 ± 7.764
Description: The analgesic effect has been studied in white Swiss I.C.R. mice, with the acetic acid writhing technique. Batches of 10 mice were made.
The products under study were administered intraperitoneally, and after 30 minutes 0.25 ml of 1% acetic acid were injected intraperitoneally. A batch of control animals received only the acetic acid. The number of writhes in each mouse were noted 20 minutes after the acetic acid was administered.

albino Swiss I.C.R. mice [1] = experiment: Acute toxicity (LD50, intraperitoneal, Litchfield-Wilcoxen); format: in vivo; details: both sexes, deaths noted 48 hours after treatment
Description: (§1) Acute toxicity studies have been made in albino Swiss I.C.R. mice, of both sexes, of a weight of 30±2 g, kept without food for 24 hours prior to the experiment. Temperature and relative humidity of the atmosphere were kept constant. The products were administered intraperitoneally, the number of deaths having been noted 48 hours after treatment. The lethal dose (LD50) was calculated by the Litchfield-Wilcoxen test.

albino Swiss I.C.R. mice [2] = experiment: Thermal analgesia, 55° C. hot-plate technique; format: in vivo; details: for Jumping time in sec. x ± S.E.M.: 50 mg/kg intraperitoneally, 30 minutes after dosing, 55° C. hot-plate, average ± standard error of the mean, control 64 ± 7.911
Description: The thermal analgesic effect has been studied in albino Swiss I.C.R. mice. The 55° C. hot-plate technique has been used. Batches of 10 mice were made.
The products under study were administered intraperitoneally. After 30 minutes the mice were placed on the hot-plate and note was made of the time it took them to jump, in seconds. Batches were made of control animals injected only with distilled water.

[3] = Acute toxicity (LD50, intraperitoneal, Litchfield-Wilcoxen); format: in vivo, albino Swiss I.C.R. mice; details: mouse, in vivo, ip, mice, both sexes, deaths noted 48 hours after treatment
Description: as §1

Structure (SMILES): CCC(=O)O[C@](Cc1ccccc1)(c1ccccc1)[C@H](C)CN(C)C [Dextropropoxyphene, reference compound]
- No. of writhes x ± S.E.M (white Swiss I.C.R. mice): 68.4 ± 5.258
- LD50 (albino Swiss I.C.R. mice [1]): 140 mg/kg
- Jumping time in sec. x ± S.E.M. (albino Swiss I.C.R. mice [2]): 164 ± 7.319 s

Structure (SMILES): CC1=CC2Cc3ccsc3C(C1)N2C (stereo not drawn) [I, 7,10-dimethyl-5,9-imino-4,5,8,9-tetrahydrocyclooct[b]thiophene]
- No. of writhes x ± S.E.M (white Swiss I.C.R. mice): 85.3 ± 13.915
- Signif. of differences, Dextropropox. (white Swiss I.C.R. mice; No. of writhes, 25 mg/kg, versus dextropropoxyphene): N.S.
- chemical analgesic activity (in words) (white Swiss I.C.R. mice; acetic acid writhing, compared with dextropropoxyphene): shows the same analgesic activity as dextropropoxyphene
- LD50 at 48 h [3]: 159 mg/kg
- Jumping time in sec. x ± S.E.M. (albino Swiss I.C.R. mice [2]): 114.2 ± 11.168 s
- thermal analgesic activity (in words) (albino Swiss I.C.R. mice [2]; hot-plate, compared with dextropropoxyphene): shows analgesic activity, but of less potency than that of dextropropoxyphene
